In the supplement of paper PMC6045584:
± gives the standard deviation of the averaged measurements.

What was measured:
[1] = compound: T1, CC[C@@]1(O)C(=O)OCc2c1cc1n(c2=O)Cc2cc3ccccc3nc2-1 [CAMPTOTHECIN]; experiment: surviving fraction relative to DMSO-only wells; higher = less growth inhibition; details: exposure time: 5 days
Summary of the method: (§1)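 Surviving fraction is CellTiter-Glo luminescence divided by the median of wells given DMSO only. For this, log-phase tumour cell lines went into 384-well plates at 250–500 cells per well and, 24 hours later, into five days of continuous inhibitor exposure at 0.5, 1, 5, 10, 50, 100, 500 and 1000 nM. Lines were screened three times and retained only if replicate Pearson r >0.7 and median Z' >0.3.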

[2] = compound: Cc1ccc(-c2cc(C(F)(F)F)nn2-c2ccc(S(N)(=O)=O)cc2)cc1 [CELECOXIB]; experiment: as above; details: exposure time: 5 days
Summary of the method: as §1

[3] = compound: CC(=O)NCC(=O)N1[C@@H]2CC[C@H]1c1ccc(Nc3ncc(C(F)(F)F)c(NC4CCC4)n3)cc12; experiment: as above; details: exposure time: 5 days
Summary of the method: as §1

[4] = compound: T2, CC(=O)O[C@H]1C(=O)[C@@]2(C)[C@H]([C@H](OC(=O)c3ccccc3)[C@]3(O)C[C@H](OC(=O)[C@H](O)[C@@H](NC(=O)c4ccccc4)c4ccccc4)C(C)=C1C3(C)C)[C@]1(OC(C)=O)CO[C@@H]1C[C@@H]2O [PACLITAXEL]; experiment: as above; details: exposure time: 5 days
Summary of the method: as §1

[5] = compound: CC(=O)c1c(C)c2cnc(Nc3ccc(N4CCNCC4)cn3)nc2n(C2CCCC2)c1=O; experiment: as above; details: exposure time: 5 days
Summary of the method: as §1

[6] = compound: T3, O=C(O)C1(C(=O)O)CCC1.[NH2-].[NH2-].[Pt+2] [CARBOPLATIN]; experiment: as above; details: exposure time: 5 days
Summary of the method: as §1

[7] = compound: T4, COc1cc2ncnc(Nc3ccc(F)c(Cl)c3)c2cc1OCCCN1CCOCC1 [GEFITINIB]; experiment: as above; details: exposure time: 5 days
Summary of the method: as §1

[8] = compound: T5, COCC[n+]1c2c(n(Cc3cnccn3)c1C)C(=O)c1ccccc1C2=O [YM155]; experiment: as above; details: exposure time: 5 days
Summary of the method: as §1

[9] = compound: T6, C[C@]1(O)C[C@@H](c2nc(-c3ccc4ccc(-c5ccccc5)nc4c3)c3c(N)nccn32)C1 [OSI-906]; experiment: as above; details: exposure time: 5 days
Summary of the method: as §1

[10] = compound: T1, CAMPTOTHECIN; experiment: area under dose-response curve of surviving fraction (unscaled, Aref=0) (surviving fraction x log10(nM)); higher = more resistant; details: exposure time: 5 days; dose range 0.5-1000 nM
Summary of the method: (§2)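 Each tumour cell line was screened three times in 384-well plates, receiving eight inhibitor concentrations from 0.5 to 1000 nM for five days. CellTiter-Glo luminescence gave viability, normalised to DMSO-only wells. Using the drc R package, surviving fractions were fitted with 3-parameter logistic dose-response curves, and the unscaled activity area over log10 dose (Aref = 0) was taken as the area under the curve.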

[11] = compound: CC(=O)NCC(=O)N1[C@@H]2CC[C@H]1c1ccc(Nc3ncc(C(F)(F)F)c(NC4CCC4)n3)cc12; experiment: as above; details: exposure time: 5 days; dose range 0.5-1000 nM
Summary of the method: as §2

[12] = compound: T2, PACLITAXEL; experiment: as above; details: exposure time: 5 days; dose range 0.5-1000 nM
Summary of the method: as §2

[13] = compound: CC(=O)c1c(C)c2cnc(Nc3ccc(N4CCNCC4)cn3)nc2n(C2CCCC2)c1=O; experiment: as above; details: exposure time: 5 days; dose range 0.5-1000 nM
Summary of the method: as §2

[14] = compound: T3, CARBOPLATIN; experiment: as above; details: exposure time: 5 days; dose range 0.5-1000 nM
Summary of the method: as §2

[15] = compound: T4, GEFITINIB; experiment: as above; details: exposure time: 5 days; dose range 0.5-1000 nM
Summary of the method: as §2

[16] = compound: T5, YM155; experiment: as above; details: exposure time: 5 days; dose range 0.5-1000 nM
Summary of the method: as §2

[17] = compound: T6, OSI-906; experiment: as above; details: exposure time: 5 days; dose range 0.5-1000 nM
Summary of the method: as §2

22RV1 PROSTATE
surviving fraction ([1]; 0.5 nM): 0.938 ± 0.095
surviving fraction ([1]; 1 nM): 0.957 ± 0.053
surviving fraction ([1]; 5 nM): 0.586 ± 0.044
surviving fraction ([1]; 10 nM): 0.275 ± 0.022
surviving fraction ([1]; 50 nM): 0.162 ± 0.16
surviving fraction ([1]; 100 nM): 0.189 ± 0.22
surviving fraction ([1]; 500 nM): 0.24 ± 0.28
surviving fraction ([1]; 1000 nM): 0.24 ± 0.28
surviving fraction ([2]; 0.5 nM): 1.02 ± 0.059
surviving fraction ([2]; 1 nM): 1.06 ± 0.082
surviving fraction ([2]; 5 nM): 0.996 ± 0.088
surviving fraction ([2]; 10 nM): 1.03 ± 0.025
surviving fraction ([2]; 50 nM): 0.956 ± 0.17
surviving fraction ([2]; 100 nM): 1.01 ± 0.16
surviving fraction ([2]; 500 nM): 1.02 ± 0.12
surviving fraction ([2]; 1000 nM): 1.06 ± 0.035
surviving fraction ([3]; 0.5 nM): 0.97 ± 0.066
surviving fraction ([3]; 1 nM): 0.996 ± 0.047
surviving fraction ([3]; 5 nM): 0.937 ± 0.029
surviving fraction ([3]; 10 nM): 0.95 ± 0.03
surviving fraction ([3]; 50 nM): 0.587 ± 0.021
surviving fraction ([3]; 100 nM): 0.678 ± 0.026
surviving fraction ([3]; 500 nM): 0.625 ± 0.059
surviving fraction ([3]; 1000 nM): 0.56 ± 0.066
surviving fraction ([4]; 0.5 nM): 1.02 ± 0.057
surviving fraction ([4]; 1 nM): 1.04 ± 0.066
surviving fraction ([4]; 5 nM): 0.121 ± 0.018
surviving fraction ([4]; 10 nM): 0.0847 ± 0.0021
surviving fraction ([4]; 50 nM): 0.0603 ± 0.0061
surviving fraction ([4]; 100 nM): 0.053 ± 0.0036
surviving fraction ([4]; 500 nM): 0.0467 ± 0.0057
surviving fraction ([4]; 1000 nM): 0.0553 ± 0.0046
surviving fraction ([5]; 0.5 nM): 1.05 ± 0.089
surviving fraction ([5]; 1 nM): 1.06 ± 0.032
surviving fraction ([5]; 5 nM): 1.04 ± 0.067
surviving fraction ([5]; 10 nM): 1.048 ± 0.0085
surviving fraction ([5]; 50 nM): 1.09 ± 0.053
surviving fraction ([5]; 100 nM): 1.11 ± 0.08
surviving fraction ([5]; 500 nM): 1.11 ± 0.071
surviving fraction ([5]; 1000 nM): 1.03 ± 0.027
surviving fraction ([6]; 0.5 nM): 1.1 ± 0.072
surviving fraction ([6]; 1 nM): 0.999 ± 0.057
surviving fraction ([6]; 5 nM): 1.03 ± 0.051
surviving fraction ([6]; 10 nM): 1.02 ± 0.036
surviving fraction ([6]; 50 nM): 1.06 ± 0.093
surviving fraction ([6]; 100 nM): 1.04 ± 0.12
surviving fraction ([6]; 500 nM): 1.06 ± 0.068
surviving fraction ([6]; 1000 nM): 1.13 ± 0.17
surviving fraction ([7]; 0.5 nM): 1 ± 0.023
surviving fraction ([7]; 1 nM): 0.984 ± 0.18
surviving fraction ([7]; 5 nM): 0.979 ± 0.085
surviving fraction ([7]; 10 nM): 1 ± 0.058
surviving fraction ([7]; 50 nM): 0.987 ± 0.18
surviving fraction ([7]; 100 nM): 1.03 ± 0.15
surviving fraction ([7]; 500 nM): 1.04 ± 0.17
surviving fraction ([7]; 1000 nM): 1.03 ± 0.12
surviving fraction ([8]; 0.5 nM): 1.12 ± 0.21
surviving fraction ([8]; 1 nM): 1.05 ± 0.097
surviving fraction ([8]; 5 nM): 0.703 ± 0.16
surviving fraction ([8]; 10 nM): 0.679 ± 0.13
surviving fraction ([8]; 50 nM): 0.151 ± 0.16
surviving fraction ([8]; 100 nM): 0.165 ± 0.23
surviving fraction ([8]; 500 nM): 0.101 ± 0.14
surviving fraction ([8]; 1000 nM): 0.121 ± 0.16
surviving fraction ([9]; 0.5 nM): 0.9557 ± 0.009
surviving fraction ([9]; 1 nM): 1 ± 0.097
surviving fraction ([9]; 5 nM): 0.934 ± 0.11
surviving fraction ([9]; 10 nM): 1.01 ± 0.18
surviving fraction ([9]; 50 nM): 0.902 ± 0.049
surviving fraction ([9]; 100 nM): 0.928 ± 0.077
surviving fraction ([9]; 500 nM): 0.911 ± 0.14
surviving fraction ([9]; 1000 nM): 0.803 ± 0.11
area under dose-response curve [10]: 1.47
area under dose-response curve [11]: 2.6
area under dose-response curve [12]: 0.962
area under dose-response curve [13]: 3.53
area under dose-response curve [14]: 3.48
area under dose-response curve [15]: 3.34
area under dose-response curve [16]: 1.58
area under dose-response curve [17]: 3.1
